# According to patent US5401490A, “Markers of tissue hypoxia” (priority 1989, dated 1995):
# Read-outs that look alike come from different tables or passages of the source.
# Test: Tissue distribution of radioactivity after intravenous injection
# Assay type: in vivo, BALB/C mice
# Conditions: mouse, iv, i.v.; for tissue uptake at 0.5 h: 0.50 h
# From the text: Tables 1 and 2 show the percent of injected IAZG and IAZA respectively per gram of wet tissue for selected tissues excised from BALB/C mice bearing EMT-6 tumors. This tumor model is known to have a high hypoxic fraction (0.33) (16). […] Hepatobiliary excretion may play a role in blood clearance as evidenced by elevated liver radioactivity and the appearance of activity in the intestine. Some oxidative or reductive metabolites of the 2-nitroimidazoles may also become bound to liver tissue, as was postulated in an in vivo study with ^14 C-MISO (6). This supposition is supported by the persistence of liver radioactivity at longer time periods. […] At 8 and 24 hours thyroid levels of IAZG are 7.2 and 30.9% of the total body activity and for IAZA they are 7.9 and 33.8% of total body activity. EXAMPLE 11 TISSUE DISTRIBUTION AND EXCRETION Tumor propagation of EMT-6 tumors in BALB/C mice was accomplished by subcutaneous injection of a cell suspension (10^5 cells in 0.1 mL) as described previously (10). Tumors reached about 10 mm in diameter (≈0.5 g) at 12 to 14 days, at which time each animal was given a bolus intravenous injection of ^125 I-labelled test drug via the tail vein (40 to 60 kBq in 0.1 mL). At set time periods the animals were asphyxiated with CO2 and exsanguinated via cardiac puncture. Tissues were dissected, weighed wet into vials and counted for ^125 I-activity. Whole-body activity was determined by summation of total activity in tissues and in residual carcass, and blood activity was determined from the blood aliquot, assuming blood to be 6.5% of the total body weight. EXAMPLE 12 Male BALB/c mice (20-25 g) were inoculated subcutaneously in the left flank with a suspension of murine EMT-6 cells (10^5 cells in 0.1 mL) (14). After 12 to 14 days, when the tumors reached the desired size (8-10 mm diameter), each mouse received a single intravenous (iv) injection of ^125 I-IAZA (59 kBq in 0.1 mL). […] Heart, lung, liver, spleen, muscle, bone, thyroid, kidney, stomach, small intestine, tail, tumor and skin were removed upon necropsy, weighed and analyzed for ^125 I using a Beckman Model 8000 gamma scintillation counter. The remaining carcass mass was also weighed and radioassayed.
# [1] = blood, read-out: Percent of Injected Dose per Gram, Blood
# [2] = intestine, read-out: Percent of Injected Dose per Gram, Intestine
# [3] = kidney, read-out: Percent of Injected Dose per Gram, Kidney
# [4] = liver, read-out: Percent of Injected Dose per Gram, Liver
# [5] = lung, read-out: Percent of Injected Dose per Gram, Lung
# [6] = muscle, read-out: Percent of Injected Dose per Gram, Muscle
# [7] = stomach, read-out: Percent of Injected Dose per Gram, Stomach
# [8] = tumor, read-out: Percent of Injected Dose per Gram, Tumor
compound,measurement,setting,value
"O=[N+]([O-])c1nccn1[C@@H]1O[C@H](CI)[C@H](O)[C@H](O)[C@H]1O [IAZG, 1-(6-iodo-6-deoxy-β-D-galactopyranosyl)-2-nitroimidazole]",tissue uptake at 0.25 h,[1],1.83 ± 0.17 %ID/g
same,tissue uptake at 0.5 h,[1],1.11 ± 0.16 %ID/g
same,tissue uptake at 1 h,[1],0.86 ± 0.26 %ID/g
same,tissue uptake at 2 h,[1],0.53 ± 0.1 %ID/g
same,tissue uptake at 4 h,[1],0.28 ± 0.07 %ID/g
same,tissue uptake at 8 h,[1],0.16 ± 0.03 %ID/g
same,tissue uptake at 24 h,[1],0.06 ± 0.02 %ID/g
same,tissue uptake at 0.25 h,[2],6.82 ± 5.2 %ID/g
same,tissue uptake at 0.5 h,[2],3.65 ± 1.36 %ID/g
same,tissue uptake at 1 h,[2],1.16 ± 0.25 %ID/g
same,tissue uptake at 2 h,[2],0.82 ± 0.45 %ID/g
same,tissue uptake at 4 h,[2],0.29 ± 0.07 %ID/g
same,tissue uptake at 8 h,[2],0.17 ± 0.08 %ID/g
same,tissue uptake at 24 h,[2],0.05 ± 0.02 %ID/g
same,tissue uptake at 0.25 h,[3],15.6 ± 1.15 %ID/g
same,tissue uptake at 0.5 h,[3],8.94 ± 1.2 %ID/g
same,tissue uptake at 1 h,[3],4.56 ± 1.41 %ID/g
same,tissue uptake at 2 h,[3],2.67 ± 0.51 %ID/g
same,tissue uptake at 4 h,[3],1.1 ± 0.29 %ID/g
same,tissue uptake at 8 h,[3],0.4 ± 0.02 %ID/g
same,tissue uptake at 24 h,[3],0.09 ± 0.03 %ID/g
same,tissue uptake at 0.25 h,[4],5.5 ± 0.79 %ID/g
same,tissue uptake at 0.5 h,[4],2.96 ± 0.49 %ID/g
same,tissue uptake at 1 h,[4],1.48 ± 0.24 %ID/g
same,tissue uptake at 2 h,[4],1.4 ± 0.56 %ID/g
same,tissue uptake at 4 h,[4],0.43 ± 0.12 %ID/g
same,tissue uptake at 8 h,[4],0.2 ± 0.02 %ID/g
same,tissue uptake at 24 h,[4],0.08 ± 0.02 %ID/g
same,tissue uptake at 0.25 h,[5],2.77 ± 0.44 %ID/g
same,tissue uptake at 0.5 h,[5],1.46 ± 0.24 %ID/g
same,tissue uptake at 1 h,[5],0.74 ± 0.12 %ID/g
same,tissue uptake at 2 h,[5],0.61 ± 0.17 %ID/g
same,tissue uptake at 4 h,[5],0.33 ± 0.09 %ID/g
same,tissue uptake at 8 h,[5],0.16 ± 0.02 %ID/g
same,tissue uptake at 24 h,[5],0.07 ± 0.01 %ID/g
same,tissue uptake at 0.25 h,[6],1.31 ± 0.21 %ID/g
same,tissue uptake at 0.5 h,[6],0.7 ± 0.18 %ID/g
same,tissue uptake at 1 h,[6],0.37 ± 0.19 %ID/g
same,tissue uptake at 2 h,[6],0.34 ± 0.2 %ID/g
same,tissue uptake at 4 h,[6],0.14 ± 0.03 %ID/g
same,tissue uptake at 8 h,[6],0.06 ± 0.02 %ID/g
same,tissue uptake at 24 h,[6],0.02 ± 0.01 %ID/g
same,tissue uptake at 0.25 h,[7],3.29 ± 1.07 %ID/g
same,tissue uptake at 0.5 h,[7],2.14 ± 1.01 %ID/g
same,tissue uptake at 1 h,[7],1.38 ± 0.42 %ID/g
same,tissue uptake at 2 h,[7],1.49 ± 1.12 %ID/g
same,tissue uptake at 4 h,[7],0.55 ± 0.3 %ID/g
same,tissue uptake at 8 h,[7],0.42 ± 0.35 %ID/g
same,tissue uptake at 24 h,[7],0.06 ± 0.04 %ID/g
same,tissue uptake at 0.25 h,[8],1.75 ± 0.46 %ID/g
same,tissue uptake at 0.5 h,[8],1.45 ± 0.24 %ID/g
same,tissue uptake at 1 h,[8],1.21 ± 0.21 %ID/g
same,tissue uptake at 2 h,[8],0.77 ± 0.17 %ID/g
same,tissue uptake at 4 h,[8],0.43 ± 0.09 %ID/g
same,tissue uptake at 8 h,[8],0.23 ± 0.09 %ID/g
same,tissue uptake at 24 h,[8],0.08 ± 0.01 %ID/g
